Source: the kinase profiling compilation of Christmann-Franck et al. (2016)

Assays:
Experiment in all cases: radiometric filter-binding kinase assay
[1] = biological target: MAPK15 (human) (UniProt Q8TD08)
[2] = biological target: MAPK9 (human) (UniProt P45984)
[3] = biological target: CaMK1 (human) (UniProt Q14012)
[4] = biological target: DYRK1A (human) (UniProt Q13627)
[5] = biological target: IKBKE (human) (UniProt Q14164)
[6] = biological target: IKBKB (human) (UniProt O14920)
[7] = biological target: PIM1 (human) (UniProt P11309)
[8] = biological target: HIPK2 (human) (UniProt Q9H2X6)
[9] = biological target: BTK (human) (UniProt Q06187)
Sequence of BTK (human) (Q06187 whole entry, looked up): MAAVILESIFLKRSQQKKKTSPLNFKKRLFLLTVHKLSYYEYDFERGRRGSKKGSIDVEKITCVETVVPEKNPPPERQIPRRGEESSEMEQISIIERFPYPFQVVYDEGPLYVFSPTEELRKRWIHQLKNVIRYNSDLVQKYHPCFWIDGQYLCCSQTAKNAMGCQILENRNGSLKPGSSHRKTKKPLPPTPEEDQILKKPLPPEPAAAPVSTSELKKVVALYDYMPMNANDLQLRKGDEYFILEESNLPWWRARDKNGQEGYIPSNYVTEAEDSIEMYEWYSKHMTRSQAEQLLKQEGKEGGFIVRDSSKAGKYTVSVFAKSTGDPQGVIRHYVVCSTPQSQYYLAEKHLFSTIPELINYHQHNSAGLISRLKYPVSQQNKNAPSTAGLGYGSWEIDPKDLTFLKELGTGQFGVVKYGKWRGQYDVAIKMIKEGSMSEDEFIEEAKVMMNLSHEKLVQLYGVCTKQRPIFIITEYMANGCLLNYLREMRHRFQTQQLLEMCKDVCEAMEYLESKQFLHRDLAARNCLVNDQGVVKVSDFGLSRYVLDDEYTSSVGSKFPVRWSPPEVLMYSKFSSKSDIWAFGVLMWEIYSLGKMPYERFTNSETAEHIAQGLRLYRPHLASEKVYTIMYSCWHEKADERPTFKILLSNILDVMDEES

[10] = biological target: DYRK2 (human) (UniProt Q92630)
[11] = biological target: PRKACA (human) (UniProt P17612)
[12] = biological target: CSNK1D (human) (UniProt P48730)
Sequence of CSNK1D (human) (P48730 whole entry, looked up): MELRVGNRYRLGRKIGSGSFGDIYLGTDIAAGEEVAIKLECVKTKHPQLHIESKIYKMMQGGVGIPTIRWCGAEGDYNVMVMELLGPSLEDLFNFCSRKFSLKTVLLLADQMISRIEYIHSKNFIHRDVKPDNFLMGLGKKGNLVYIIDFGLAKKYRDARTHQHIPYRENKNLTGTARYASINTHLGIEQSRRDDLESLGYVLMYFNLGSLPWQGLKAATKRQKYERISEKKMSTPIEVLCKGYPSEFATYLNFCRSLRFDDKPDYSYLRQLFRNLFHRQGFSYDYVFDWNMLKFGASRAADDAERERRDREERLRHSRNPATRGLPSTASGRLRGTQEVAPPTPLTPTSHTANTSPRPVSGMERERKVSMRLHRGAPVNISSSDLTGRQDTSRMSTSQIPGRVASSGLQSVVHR

[13] = biological target: MAP3K11 (human) (UniProt Q16584)
[14] = biological target: YES1 (human) (UniProt P07947)
[15] = biological target: RIPK2 (human) (UniProt O43353); conditions: compound 10.0 µM
[16] = biological target: MKNK2 (human) (UniProt Q9HBH9)
Sequence of MKNK2 (human) (Q9HBH9 whole entry, looked up): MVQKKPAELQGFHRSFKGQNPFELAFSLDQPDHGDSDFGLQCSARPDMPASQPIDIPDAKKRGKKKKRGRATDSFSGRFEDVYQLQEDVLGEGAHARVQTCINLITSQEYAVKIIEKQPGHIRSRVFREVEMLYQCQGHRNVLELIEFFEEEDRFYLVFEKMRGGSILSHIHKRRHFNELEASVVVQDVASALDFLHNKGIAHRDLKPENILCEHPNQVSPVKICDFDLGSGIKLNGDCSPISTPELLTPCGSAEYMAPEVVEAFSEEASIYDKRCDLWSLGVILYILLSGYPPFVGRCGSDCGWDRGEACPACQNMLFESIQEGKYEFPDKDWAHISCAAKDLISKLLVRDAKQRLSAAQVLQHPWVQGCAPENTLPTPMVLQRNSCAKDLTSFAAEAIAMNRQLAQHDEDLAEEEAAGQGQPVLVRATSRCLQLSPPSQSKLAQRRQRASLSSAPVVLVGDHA

[17] = biological target: MAPK12 (human) (UniProt P53778)
Sequence of MAPK12 (human) (P53778 whole entry, looked up): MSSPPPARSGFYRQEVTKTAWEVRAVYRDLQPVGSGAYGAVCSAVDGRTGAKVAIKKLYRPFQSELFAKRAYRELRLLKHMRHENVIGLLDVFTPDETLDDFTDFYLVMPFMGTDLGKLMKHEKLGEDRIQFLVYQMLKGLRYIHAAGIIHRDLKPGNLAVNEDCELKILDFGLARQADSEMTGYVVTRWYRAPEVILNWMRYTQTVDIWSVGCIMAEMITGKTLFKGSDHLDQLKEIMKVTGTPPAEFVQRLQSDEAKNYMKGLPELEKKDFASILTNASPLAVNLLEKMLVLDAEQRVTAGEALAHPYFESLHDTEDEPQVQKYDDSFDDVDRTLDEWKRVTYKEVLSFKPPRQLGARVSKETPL

[18] = biological target: PAK7 (human) (UniProt Q9P286)
[19] = biological target: MAPK14 (human) (UniProt Q16539)
Sequence of MAPK14 (human) (Q16539 whole entry, looked up): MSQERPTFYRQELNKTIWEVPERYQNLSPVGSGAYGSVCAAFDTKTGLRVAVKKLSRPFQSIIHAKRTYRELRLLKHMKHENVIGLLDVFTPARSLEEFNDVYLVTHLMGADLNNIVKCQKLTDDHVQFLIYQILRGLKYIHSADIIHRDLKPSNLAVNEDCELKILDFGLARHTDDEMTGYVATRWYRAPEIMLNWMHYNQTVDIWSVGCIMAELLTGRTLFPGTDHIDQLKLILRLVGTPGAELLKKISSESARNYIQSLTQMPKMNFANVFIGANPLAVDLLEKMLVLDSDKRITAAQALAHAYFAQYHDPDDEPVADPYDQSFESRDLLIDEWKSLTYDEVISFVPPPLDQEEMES

[20] = biological target: MAPKAPK2 (human) (UniProt P49137)
Sequence of MAPKAPK2 (human) (P49137 whole entry, looked up): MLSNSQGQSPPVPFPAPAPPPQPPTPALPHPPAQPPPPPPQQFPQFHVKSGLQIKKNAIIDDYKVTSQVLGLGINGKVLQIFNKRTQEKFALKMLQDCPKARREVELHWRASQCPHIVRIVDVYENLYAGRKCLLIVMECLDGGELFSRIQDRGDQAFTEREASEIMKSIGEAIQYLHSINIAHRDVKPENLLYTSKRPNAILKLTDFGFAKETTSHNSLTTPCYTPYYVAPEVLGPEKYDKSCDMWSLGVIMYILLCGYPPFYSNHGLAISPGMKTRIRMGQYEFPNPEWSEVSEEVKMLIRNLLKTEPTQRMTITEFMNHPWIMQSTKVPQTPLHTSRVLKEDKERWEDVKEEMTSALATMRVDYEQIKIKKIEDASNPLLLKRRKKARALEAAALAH

[21] = biological target: MAPK8 (human) (UniProt P45983)
[22] = biological target: MAPKAPK5 (human) (UniProt Q8IW41)
Sequence of MAPKAPK5 (human) (Q8IW41 whole entry, looked up): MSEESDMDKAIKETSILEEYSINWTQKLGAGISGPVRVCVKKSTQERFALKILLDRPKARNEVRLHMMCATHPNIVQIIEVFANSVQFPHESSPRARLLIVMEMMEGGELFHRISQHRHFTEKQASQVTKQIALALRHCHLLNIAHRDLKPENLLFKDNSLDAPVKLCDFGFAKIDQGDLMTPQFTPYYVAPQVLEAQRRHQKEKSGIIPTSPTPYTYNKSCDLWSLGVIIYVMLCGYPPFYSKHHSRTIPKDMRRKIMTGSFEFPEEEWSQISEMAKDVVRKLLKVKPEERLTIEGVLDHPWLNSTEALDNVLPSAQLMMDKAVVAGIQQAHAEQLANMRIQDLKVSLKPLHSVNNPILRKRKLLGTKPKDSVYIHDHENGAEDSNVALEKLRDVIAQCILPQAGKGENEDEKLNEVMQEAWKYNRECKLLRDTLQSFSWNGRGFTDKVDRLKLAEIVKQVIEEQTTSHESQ

[23] = biological target: MELK (human) (UniProt Q14680)
[24] = biological target: EPHB3 (human) (UniProt P54753)
Sequence of EPHB3 (human) (P54753 whole entry, looked up): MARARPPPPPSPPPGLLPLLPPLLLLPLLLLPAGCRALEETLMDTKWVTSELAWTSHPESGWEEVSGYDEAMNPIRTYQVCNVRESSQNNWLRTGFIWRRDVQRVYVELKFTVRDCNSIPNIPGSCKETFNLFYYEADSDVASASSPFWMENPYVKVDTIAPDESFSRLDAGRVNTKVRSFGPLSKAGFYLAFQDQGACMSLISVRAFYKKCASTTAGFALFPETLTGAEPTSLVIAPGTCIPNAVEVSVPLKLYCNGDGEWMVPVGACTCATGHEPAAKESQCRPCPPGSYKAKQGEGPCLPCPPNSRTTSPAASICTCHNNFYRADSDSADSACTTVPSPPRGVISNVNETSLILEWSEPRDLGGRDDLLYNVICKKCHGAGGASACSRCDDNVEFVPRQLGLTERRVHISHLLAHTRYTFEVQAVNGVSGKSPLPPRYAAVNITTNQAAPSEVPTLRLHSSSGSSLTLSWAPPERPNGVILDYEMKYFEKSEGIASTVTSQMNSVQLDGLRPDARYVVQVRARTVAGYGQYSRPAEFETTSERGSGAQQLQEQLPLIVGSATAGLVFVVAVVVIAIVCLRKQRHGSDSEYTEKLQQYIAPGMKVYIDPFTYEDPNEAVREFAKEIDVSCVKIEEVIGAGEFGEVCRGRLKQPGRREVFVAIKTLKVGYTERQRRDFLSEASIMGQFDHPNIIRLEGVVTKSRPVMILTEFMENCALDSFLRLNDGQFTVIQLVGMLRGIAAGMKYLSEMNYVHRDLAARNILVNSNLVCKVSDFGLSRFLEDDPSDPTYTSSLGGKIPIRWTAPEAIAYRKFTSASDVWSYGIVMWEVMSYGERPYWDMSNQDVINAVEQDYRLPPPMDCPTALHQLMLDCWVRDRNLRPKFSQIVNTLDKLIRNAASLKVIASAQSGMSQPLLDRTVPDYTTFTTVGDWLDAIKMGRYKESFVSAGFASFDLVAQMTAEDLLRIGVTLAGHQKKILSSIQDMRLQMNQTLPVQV

[25] = biological target: CSK (human) (UniProt P41240)
[26] = biological target: BRSK1 (human) (UniProt Q8TDC3)
[27] = biological target: CAMKK2 (human) (UniProt Q96RR4)
[28] = biological target: MINK1 (human) (UniProt Q8N4C8)
[29] = biological target: IGF1R (human) (UniProt P08069)
[30] = biological target: AURKB (human) (UniProt Q96GD4)
[31] = biological target: PAK4 (human) (UniProt O96013)

Sequence of MAPK9 (human) (P45984 whole entry, looked up): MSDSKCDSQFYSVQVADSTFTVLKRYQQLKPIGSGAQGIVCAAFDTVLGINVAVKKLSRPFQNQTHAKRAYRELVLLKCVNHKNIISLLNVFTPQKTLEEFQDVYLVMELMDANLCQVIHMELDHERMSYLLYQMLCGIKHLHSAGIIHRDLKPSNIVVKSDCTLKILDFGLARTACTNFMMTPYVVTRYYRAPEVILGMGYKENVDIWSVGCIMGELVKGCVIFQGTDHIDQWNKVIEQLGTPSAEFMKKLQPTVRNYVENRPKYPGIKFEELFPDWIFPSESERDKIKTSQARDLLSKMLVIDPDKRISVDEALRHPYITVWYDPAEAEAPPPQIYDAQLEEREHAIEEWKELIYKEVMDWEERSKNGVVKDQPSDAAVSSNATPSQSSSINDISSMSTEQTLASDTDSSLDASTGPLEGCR
Sequence of CaMK1 (human) (Q14012 whole entry, looked up): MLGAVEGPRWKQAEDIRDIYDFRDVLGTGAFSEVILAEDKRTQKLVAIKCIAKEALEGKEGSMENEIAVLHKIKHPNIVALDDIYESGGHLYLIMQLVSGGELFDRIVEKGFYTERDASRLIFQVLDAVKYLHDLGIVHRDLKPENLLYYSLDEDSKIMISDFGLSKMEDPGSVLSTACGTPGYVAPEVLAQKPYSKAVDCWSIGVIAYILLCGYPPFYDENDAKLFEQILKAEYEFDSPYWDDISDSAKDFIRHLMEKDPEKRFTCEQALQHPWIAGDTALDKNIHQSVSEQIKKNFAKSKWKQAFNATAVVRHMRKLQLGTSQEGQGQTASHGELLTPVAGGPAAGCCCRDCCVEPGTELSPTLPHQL

Q: How did the residual activity ([1]; compound 1.0 µM) turn out when CN1C(=O)[C@@H](Cc2c[nH]c3ccccc23)NC1=S was run?
A: Its residual activity is 98%.

Q: What about the residual activity ([1]; compound 10.0 µM) of the same compound?
A: Its residual activity is 103%.

Q: What about the residual activity ([2]; compound 1.0 µM) of the same compound?
A: The residual activity was 85%.

Q: And the residual activity ([2]; compound 10.0 µM)?
A: Its residual activity is 88%.

Q: What about the residual activity ([3]; compound 1.0 µM) of the same compound?
A: Its residual activity is 94%.

Q: And the residual activity ([3]; compound 10.0 µM)?
A: Its residual activity is 94%.

Q: What about the residual activity ([4]; compound 1.0 µM) of the same compound?
A: The residual activity was 81%.

Q: And the residual activity ([4]; compound 10.0 µM)?
A: Its residual activity is 94%.

Q: What about the residual activity ([5]; compound 1.0 µM) of the same compound?
A: Its residual activity is 90%.

Q: And the residual activity ([5]; compound 10.0 µM)?
A: The residual activity was 86%.

Q: And the residual activity ([6]; compound 1.0 µM)?
A: The residual activity was 95%.

Q: And the residual activity ([6]; compound 10.0 µM)?
A: The residual activity was 96%.

Q: What about the residual activity ([7]; compound 1.0 µM) of the same compound?
A: Its residual activity is 87%.

Q: And the residual activity ([7]; compound 10.0 µM)?
A: Its residual activity is 94%.

Q: And the residual activity ([8]; compound 1.0 µM)?
A: The residual activity was 81%.

Q: What about the residual activity ([8]; compound 10.0 µM) of the same compound?
A: The residual activity was 88%.

Q: What about the residual activity ([9]; compound 1.0 µM) of the same compound?
A: Its residual activity is 99%.

Q: What about the residual activity ([9]; compound 10.0 µM) of the same compound?
A: Its residual activity is 89%.

Q: And the residual activity ([10]; compound 1.0 µM)?
A: Its residual activity is 105%.

Q: What about the residual activity ([10]; compound 10.0 µM) of the same compound?
A: The residual activity was 107%.

Q: And the residual activity ([11]; compound 1.0 µM)?
A: Its residual activity is 95%.

Q: And the residual activity ([11]; compound 10.0 µM)?
A: The residual activity was 93%.

Q: And the residual activity ([12]; compound 1.0 µM)?
A: Its residual activity is 94%.

Q: What about the residual activity ([12]; compound 10.0 µM) of the same compound?
A: The residual activity was 101%.

Q: What about the residual activity ([13]; compound 1.0 µM) of the same compound?
A: The residual activity was 109%.

Q: What about the residual activity ([13]; compound 10.0 µM) of the same compound?
A: Its residual activity is 109%.

Q: And the residual activity ([14]; compound 1.0 µM)?
A: The residual activity was 107%.

Q: What about the residual activity ([14]; compound 10.0 µM) of the same compound?
A: Its residual activity is 92%.

Q: And the residual activity [15]?
A: Its residual activity is 112%.

Q: What about the residual activity ([16]; compound 1.0 µM) of the same compound?
A: The residual activity was 106%.

Q: What about the residual activity ([16]; compound 10.0 µM) of the same compound?
A: The residual activity was 102%.

Q: And the residual activity ([17]; compound 1.0 µM)?
A: Its residual activity is 111%.

Q: And the residual activity ([17]; compound 10.0 µM)?
A: Its residual activity is 101%.

Q: What about the residual activity ([18]; compound 1.0 µM) of the same compound?
A: The residual activity was 119%.

Q: And the residual activity ([18]; compound 10.0 µM)?
A: The residual activity was 99%.

Q: And the residual activity ([19]; compound 1.0 µM)?
A: The residual activity was 97%.

Q: What about the residual activity ([19]; compound 10.0 µM) of the same compound?
A: Its residual activity is 102%.

Q: What about the residual activity ([20]; compound 1.0 µM) of the same compound?
A: Its residual activity is 85%.

Q: And the residual activity ([20]; compound 10.0 µM)?
A: Its residual activity is 96%.

Q: What about the residual activity ([21]; compound 1.0 µM) of the same compound?
A: Its residual activity is 85%.

Q: What about the residual activity ([21]; compound 10.0 µM) of the same compound?
A: Its residual activity is 79%.

Q: What about the residual activity ([22]; compound 1.0 µM) of the same compound?
A: The residual activity was 88%.

Q: What about the residual activity ([22]; compound 10.0 µM) of the same compound?
A: The residual activity was 87%.

Q: And the residual activity ([23]; compound 1.0 µM)?
A: The residual activity was 88%.

Q: And the residual activity ([23]; compound 10.0 µM)?
A: The residual activity was 89%.

Q: What about the residual activity ([24]; compound 1.0 µM) of the same compound?
A: Its residual activity is 112%.

Q: And the residual activity ([24]; compound 10.0 µM)?
A: The residual activity was 104%.

Q: What about the residual activity ([25]; compound 1.0 µM) of the same compound?
A: Its residual activity is 98%.

Q: What about the residual activity ([25]; compound 10.0 µM) of the same compound?
A: Its residual activity is 110%.

Q: What about the residual activity ([26]; compound 1.0 µM) of the same compound?
A: The residual activity was 101%.

Q: And the residual activity ([26]; compound 10.0 µM)?
A: Its residual activity is 103%.

Q: And the residual activity ([27]; compound 1.0 µM)?
A: The residual activity was 91%.

Q: What about the residual activity ([27]; compound 10.0 µM) of the same compound?
A: Its residual activity is 86%.

Q: What about the residual activity ([28]; compound 1.0 µM) of the same compound?
A: The residual activity was 103%.

Q: What about the residual activity ([28]; compound 10.0 µM) of the same compound?
A: Its residual activity is 99%.

Q: And the residual activity ([29]; compound 1.0 µM)?
A: The residual activity was 86%.

Q: And the residual activity ([29]; compound 10.0 µM)?
A: Its residual activity is 120%.

Q: What about the residual activity ([30]; compound 1.0 µM) of the same compound?
A: Its residual activity is 104%.

Q: What about the residual activity ([30]; compound 10.0 µM) of the same compound?
A: The residual activity was 106%.

Q: What about the residual activity ([31]; compound 1.0 µM) of the same compound?
A: Its residual activity is 95%.

Q: And the residual activity ([31]; compound 10.0 µM)?
A: Its residual activity is 97%.

Q: Which results are given for CCc1cncnc1N1CCN(Cc2nc3cc(C(F)(F)F)ccc3[nH]2)CC1?
A: residual activity ([1]; compound 0.1 µM): 85%; residual activity ([1]; compound 1.0 µM): 83%; residual activity ([1]; compound 10.0 µM): 71%; residual activity ([2]; compound 0.1 µM): 92%; residual activity ([2]; compound 1.0 µM): 93%; residual activity ([2]; compound 10.0 µM): 98%; residual activity ([3]; compound 0.1 µM): 106%; residual activity ([3]; compound 10.0 µM): 78%; residual activity ([4]; compound 0.1 µM): 99%; residual activity ([4]; compound 1.0 µM): 94%; residual activity ([4]; compound 10.0 µM): 85%; residual activity ([5]; compound 0.1 µM): 103%; residual activity ([5]; compound 1.0 µM): 99%; residual activity ([5]; compound 10.0 µM): 96%; residual activity ([6]; compound 0.1 µM): 104%; residual activity ([6]; compound 1.0 µM): 119%; residual activity ([6]; compound 10.0 µM): 102%; residual activity ([7]; compound 0.1 µM): 88%; residual activity ([7]; compound 1.0 µM): 90%; residual activity ([7]; compound 10.0 µM): 78%; residual activity ([8]; compound 0.1 µM): 108%; residual activity ([8]; compound 1.0 µM): 86%; residual activity ([8]; compound 10.0 µM): 88%; residual activity ([9]; compound 0.1 µM): 83%; residual activity ([9]; compound 1.0 µM): 87%; residual activity ([9]; compound 10.0 µM): 92%; residual activity ([10]; compound 0.1 µM): 97%; residual activity ([10]; compound 1.0 µM): 104%; residual activity ([10]; compound 10.0 µM): 101%; residual activity ([11]; compound 0.1 µM): 84%; residual activity ([11]; compound 1.0 µM): 83%; residual activity ([11]; compound 10.0 µM): 34%; residual activity ([12]; compound 0.1 µM): 96%; residual activity ([12]; compound 1.0 µM): 93%; residual activity ([12]; compound 10.0 µM): 71%; residual activity ([14]; compound 0.1 µM): 98%; residual activity ([14]; compound 1.0 µM): 84%; residual activity ([14]; compound 10.0 µM): 76%; residual activity ([16]; compound 0.1 µM): 92%; residual activity ([16]; compound 1.0 µM): 93%; residual activity ([16]; compound 10.0 µM): 79%; residual activity ([17]; compound 0.1 µM): 107%; residual activity ([17]; compound 1.0 µM): 102%; residual activity ([17]; compound 10.0 µM): 103%; residual activity ([18]; compound 1.0 µM): 88%; residual activity ([18]; compound 10.0 µM): 87%; residual activity ([19]; compound 0.1 µM): 86%; residual activity ([19]; compound 1.0 µM): 79%; residual activity ([19]; compound 10.0 µM): 86%; residual activity ([20]; compound 1.0 µM): 105%; residual activity ([20]; compound 10.0 µM): 78%; residual activity ([21]; compound 1.0 µM): 107%; residual activity ([21]; compound 10.0 µM): 95%; residual activity ([22]; compound 0.1 µM): 114%; residual activity ([22]; compound 1.0 µM): 97%; residual activity ([22]; compound 10.0 µM): 87%; residual activity ([23]; compound 0.1 µM): 94%; residual activity ([23]; compound 1.0 µM): 101%; residual activity ([23]; compound 10.0 µM): 87%; residual activity ([24]; compound 0.1 µM): 132%; residual activity ([24]; compound 1.0 µM): 139%; residual activity ([24]; compound 10.0 µM): 101%; residual activity ([25]; compound 0.1 µM): 94%; residual activity ([25]; compound 1.0 µM): 93%; residual activity ([25]; compound 10.0 µM): 98%; residual activity ([27]; compound 0.1 µM): 99%; residual activity ([27]; compound 1.0 µM): 98%; residual activity ([27]; compound 10.0 µM): 80%; residual activity ([29]; compound 0.1 µM): 72%; residual activity ([29]; compound 1.0 µM): 95%; residual activity ([29]; compound 10.0 µM): 82%; residual activity ([30]; compound 0.1 µM): 89%; residual activity ([30]; compound 1.0 µM): 87%; residual activity ([30]; compound 10.0 µM): 49%; residual activity ([31]; compound 0.1 µM): 93%; residual activity ([31]; compound 1.0 µM): 88%; residual activity ([31]; compound 10.0 µM): 88%
